Laboratory results: patent publication US11208387B2, “Macrocyclic broad spectrum antibiotics” (Genentech, Inc., priority 2019, dated 2021)
Converted amounts (≈) assume the structure as drawn. Like-named read-outs stand apart in the source and are kept apart here.

Experiments:
Experiment in all cases: Serum MIC, broth micro-dilution
Type in all cases: cell-based
[1] = test system: Pseudomonas aeruginosa PA01; settings: Pseudomonas aeruginosa, read-out: P. aeruginosa 01 Serum MIC
Outline: (§1)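 Half mouse serum, half cation-adjusted MH II broth (v/v) served as test medium; bacteria at final OD600 0.0005 were exposed to serial 2-fold compound dilutions for 22 h, 35° C, and the MIC was determined per CLSI M07-A8.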

[2] = test system: Klebsiella pneumoniae ATCC 700603; settings: Klebsiella pneumoniae
Outline: as §1

[3] = test system: Acinetobacter baumannii ATCC 17978; settings: Acinetobacter baumannii
Outline: as §1

[4] = test system: Escherichia coli strain ATCC 25922; settings: Escherichia coli, read-out: E. coli 25922 Serum MIC
Outline: as §1

[5] = PA01, 50% v/v mouse serum in Mueller Hinton II cation adjusted Broth, 35° C., 22 hours, Table 4
[6] = ATCC700603, 50% v/v mouse serum in Mueller Hinton II cation adjusted Broth, 35° C., 22 hours, Table 4, read-out: K pneumoniae 700603 Serum MIC
[7] = ATCC17978, 50% v/v mouse serum in Mueller Hinton II cation adjusted Broth, 35° C., 22 hours, Table 4, read-out: A. baumanii 17978 Serum MIC
[8] = ATCC17978, 50% v/v mouse serum in Mueller Hinton II cation adjusted Broth, 35° C., 22 hours, Table 5, read-out: Acinetobacter baumanii 17978 Serum MIC
[9] = ATCC25922, 50% v/v mouse serum in Mueller Hinton II cation adjusted Broth, 35° C., 22 hours, Table 4
[10] = ATCC700603, 22 h, read-out: K pneumoniae 700603 Serum MIC
[11] = ATCC17978, 22 h, read-out: A. baumanii 17978 Serum MIC
[12] = ATCC17978, 22 h, read-out: Acinetobacter baumanii 17978 Serum MIC
[13] = PA01, 50% v/v mouse serum, compounds of Table 1, Table 7
[14] = ATCC700603, 50% v/v mouse serum, compounds of Table 1, Table 7, read-out: K. pneumoniae 700603 Serum MIC
[15] = ATCC17978, 50% v/v mouse serum, compounds of Table 1, Table 7, read-out: A. baumanii 17978 Serum MIC
[16] = ATCC25922, 50% v/v mouse serum, compounds of Table 1, Table 7

In the case of C[C@@H]1NC(=O)[C@@H](N(C)C(=O)[C@H](CCN)NC(=O)c2cnn(-c3ccc(OCCC(C)(C)C)cc3)c(=O)c2)c2cc(OC[C@H](O)CN)c(O)c(c2)-c2cc(ccc2OC[C@H](O)CN)C[C@@H](C(=O)O)NC1=O [Example 22, (8S,11S,14S)-18-hydroxy-11-methyl-14-[methyl-[(2S)-4-amino-2-[[1-[4-(3,3-dimethylbutoxy)-phenyl]-6-oxo-pyridazine-4-carbonyl]amino]-butanoyl]amino]-10,13-dioxo-3,17-bis[(2R)-3-amino-2-hydroxy-propoxy]-9,12-diazatricyclo-[13.3.1.12,6]icosa-1(18),2(20),3,5,15(19), 16-hexaene-8-carboxylic acid], the MIC [1, 5] is reported as 32 µM (≈ 31.2 µg/mL), the MIC [2, 6] is reported as 0.5 µM (≈ 0.487 µg/mL) and the MIC [3, 7] is reported as 32 µM (≈ 31.2 µg/mL). The MIC [3, 8] was 32 µM (≈ 31.2 µg/mL) and the MIC [4, 9] was 1 µM (≈ 0.974 µg/mL).

In the case of C[C@@H]1NC(=O)[C@@H](N(C)C(=O)[C@H](CNS(N)(=O)=O)NC(=O)c2ncc(-c3ccc(C(C)(C)C)cc3)nc2N)c2cc(OC[C@H](O)CN)c(O)c(c2)-c2cc(ccc2OC[C@H](O)CN)C[C@@H](C(=O)O)NC1=O [Example 11, (8S,11S,14S)-18-hydroxy-11-methyl-14-[methyl-[(2S)-2-[[3-amino-5-(4-tert-butylphenyl)pyrazine-2-carbonyl]amino]-3-(sulfamoylamino)-propanoyl]amino]-10,13-dioxo-3,17-bis[(2R)-3-amino-2-hydroxy-propoxy]-9,12-diazatricyclo-[13.3.1.12,6]icosa-1(18),2(20),3,5,15(19), 16-hexaene-8-carboxylic acid], the MIC ([1]; PA01, 22 h) is reported as 64 µM (≈ 63.6 µg/mL), the MIC [2, 10] is reported as 4 µM (≈ 3.98 µg/mL) and the MIC [3, 11] is reported as 16 µM (≈ 15.9 µg/mL). For the same compound, the MIC [3, 12] was 16 µM (≈ 15.9 µg/mL) and the MIC ([4]; ATCC25922, 22 h) was 4 µM (≈ 3.98 µg/mL).

CCC1(Oc2ccc(-c3nc(C)c(C(=O)N[C@@H](CCN)C(=O)N(C)[C@@H]4C(=O)N[C@@H](C)C(=O)N[C@H](C(=O)O)Cc5ccc(OCCN)c(c5)-c5cc4ccc5OCCN)c(C)n3)cc2)CC1 (racemic) [Example 639] showed an MIC [1, 13] of 64 µM (≈ 57.2 µg/mL), an MIC [2, 14] of 1 µM (≈ 0.894 µg/mL) and an MIC [3, 15] of 64 µM (≈ 57.2 µg/mL). The MIC [4, 16] was 0.5 µM (≈ 0.447 µg/mL).

Cc1cc(C(C)(C)C)cc(O)c1-c1nc(C)c(C(=O)N[C@@H](CNS(N)(=O)=O)C(=O)N(C)[C@@H]2C(=O)N[C@@H](C)C(=O)N[C@H](C(=O)O)Cc3ccc(OC[C@H](O)CN)c(c3)-c3cc2cc(OC[C@H](O)CN)c3O)c(N)n1 [Example 48, (8S,11S,14S)-14-[[(2S)-2-[[4-amino-2-(4-tert-butyl-2-hydroxy-6-methyl-phenyl)-6-methyl-pyrimidine-5-carbonyl]amino]-3-(sulfamoylamino)-propanoyl]-methyl-amino]-3,17-bis[(2R)-3-amino-2-hydroxy-propoxy]-18-hydroxy-11-methyl-10,13-dioxo-9,12-diazatri-cyclo[13.3.1.12,6]icosa-1(18),2(20),3,5,15(19), 16-hexaene-8-carboxylic acid] showed an MIC [1, 5] of 3 µM (≈ 3.11 µg/mL), an MIC [2, 6] of 1 µM (≈ 1.04 µg/mL) and an MIC [3, 7] of 16 µM (≈ 16.6 µg/mL). The MIC [3, 8] was 16 µM (≈ 16.6 µg/mL) and the MIC [4, 9] was 0.75 µM (≈ 0.779 µg/mL).

For Cc1nc(-c2ccc(OC(C)C)cc2)ncc1C(=O)N[C@@H](CNS(N)(=O)=O)C(=O)N(C)[C@@H]1C(=O)N[C@@H](C)C(=O)N[C@H](C(=O)O)Cc2ccc(OC[C@H](O)CN)c(c2)-c2cc1cc(OC[C@H](O)CN)c2O [Example 14, (8S,11S,14S)-18-hydroxy-11-methyl-14-[methyl-[(2S)-2-[[2-(4-isopropoxy-phenyl)-4-methyl-pyrimidine-5-carbonyl]amino]-3-(sulfamoylamino)-propanoyl]amino]-10,13-dioxo-3,17-bis[(2R)-3-amino-2-hydroxy-propoxy]-9,12-diazatricyclo-[13.3.1.12,6]icosa-1(18),2(20),3,5,15(19), 16-hexaene-8-carboxylic acid], the MIC ([1]; PA01, 22 h) was 48 µM (≈ 47.8 µg/mL), the MIC [2, 10] was 2 µM (≈ 1.99 µg/mL) and the MIC [3, 11] was 32 µM (≈ 31.8 µg/mL). The MIC [3, 12] was 32 µM (≈ 31.8 µg/mL) and the MIC ([4]; ATCC25922, 22 h) was 1.5 µM (≈ 1.49 µg/mL).

C[C@@H]1NC(=O)[C@@H](N(C)C(=O)[C@H](CCN)NC(=O)c2cnn(-c3ccc(C4(C)CC4)cc3)c(=O)c2)c2cc(OC[C@H](O)CN)c(O)c(c2)-c2cc(ccc2OC[C@H](O)CN)C[C@@H](C(=O)O)NC1=O [Example 29, (8S,11S,14S)-18-hydroxy-11-methyl-14-[methyl-[(2S)-4-amino-2-[[1-[4-(1-methylcyclopropyl)-phenyl]-6-oxo-pyridazine-4-carbonyl]amino]-butanoyl]amino]-10,13-dioxo-3,17-bis[(2R)-3-amino-2-hydroxy-propoxy]-9,12-diazatricyclo-[13.3.1.12,6]icosa-1(18),2(20),3,5,15(19), 16-hexaene-8-carboxylic acid] was tested, and the MIC [1, 5] was 64 µM (≈ 59.4 µg/mL), the MIC [2, 6] was 1.8 µM (≈ 1.67 µg/mL) and the MIC [3, 7] was 32 µM (≈ 29.7 µg/mL). For the same compound, the MIC [3, 8] was 32 µM (≈ 29.7 µg/mL) and the MIC [4, 9] was 2.7 µM (≈ 2.51 µg/mL).

For C[C@@H]1NC(=O)[C@@H](N(C)C(=O)[C@H](CNS(N)(=O)=O)NC(=O)c2cnn(-c3ccc(OC4CCCCC4)cc3)c(=O)c2)c2cc(OC[C@H](O)CN)c(O)c(c2)-c2cc(ccc2OC[C@H](O)CN)C[C@@H](C(=O)O)NC1=O [Example 9, (8S,11S,14S)-18-hydroxy-11-methyl-14-[methyl-[(2S)-2-[[1-[4-(cyclohexoxy)-phenyl]-6-oxo-pyridazine-4-carbonyl]amino]-3-(sulfamoylamino)-propanoyl]amino]-10,13-dioxo-3,17-bis[(2R)-3-amino-2-hydroxy-propoxy]-9,12-diazatricyclo-[13.3.1.12,6]icosa-1(18),2(20),3,5,15(19), 16-hexaene-8-carboxylic acid], the MIC [1, 5] was 32 µM (≈ 33.2 µg/mL), the MIC [2, 6] was 1.5 µM (≈ 1.56 µg/mL) and the MIC [3, 7] was 32 µM (≈ 33.2 µg/mL). The MIC [3, 8] was 32 µM (≈ 33.2 µg/mL) and the MIC [4, 9] was 6 µM (≈ 6.22 µg/mL).

Work on Cc1nc(-c2ccc(OC(C)C)cc2)nc(C)c1C(=O)N[C@@H](CNS(N)(=O)=O)C(=O)N(C)[C@@H]1C(=O)N[C@@H](C)C(=O)N[C@H](C(=O)O)Cc2ccc(OC[C@H](O)CN)c(c2)-c2cc1cc(OC[C@H](O)CN)c2O [Example 13, (8S,11S,14S)-18-hydroxy-11-methyl-14-[methyl-[(2S)-2-[[2-(4-isopropoxy-phenyl)-4,6-dimethyl-pyrimidine-5-carbonyl]amino]-3-(sulfamoylamino)-propanoyl]amino]-10,13-dioxo-3,17-bis[(2R)-3-amino-2-hydroxy-propoxy]-9,12-diazatricyclo-[13.3.1.12,6]icosa-1(18),2(20),3,5,15(19), 16-hexaene-8-carboxylic acid] yielded an MIC ([1]; PA01, 22 h) of 24 µM (≈ 24.2 µg/mL), an MIC [2, 10] of 1.5 µM (≈ 1.51 µg/mL) and an MIC [3, 11] of 32 µM (≈ 32.3 µg/mL). For the same compound, the MIC [3, 12] was 32 µM (≈ 32.3 µg/mL) and the MIC ([4]; ATCC25922, 22 h) was 1.5 µM (≈ 1.51 µg/mL).

For C[C@@H]1NC(=O)[C@@H](N(C)C(=O)[C@H](CNS(N)(=O)=O)NC(=O)c2cnc(-c3ccc(C(C)(C)C)cc3)nc2N)c2cc(OC[C@H](O)CN)c(O)c(c2)-c2cc(ccc2OC[C@H](O)CN)C[C@@H](C(=O)O)NC1=O [Example 46, (8S,11S,14S)-14-[[(2S)-2-[[4-amino-2-(4-tert-butylphenyl)-pyrimidine-5-carbonyl]amino]-3-(sulfamoylamino)-propanoyl]-methyl-amino]-3,17-bis[(2R)-3-amino-2-hydroxy-propoxy]-18-hydroxy-11-methyl-10,13-dioxo-9,12-diazatricyclo-[13.3.1.12,6]icosa-1(18),2(20),3,5,15(19), 16-hexaene-8-carboxylic acid], the MIC [1, 5] was 16 µM (≈ 15.9 µg/mL), the MIC [2, 6] was 0.5 µM (≈ 0.497 µg/mL) and the MIC [3, 7] was 8 µM (≈ 7.95 µg/mL). The MIC [3, 8] was 8 µM (≈ 7.95 µg/mL) and the MIC [4, 9] was 0.5 µM (≈ 0.497 µg/mL).

Compound Cc1nc(-c2ccc(OC(C)C)cc2)nc(C)c1C(=O)N[C@@H](CCN)C(=O)N(C)[C@@H]1C(=O)N[C@@H](C)C(=O)N[C@H](C(=O)O)Cc2ccc(O)c(c2)-c2cc1ccc2OCCN (racemic) [Example 643] has an MIC [1, 13] of 73 µM (≈ 60.2 µg/mL), an MIC [2, 14] of 4.6 µM (≈ 3.79 µg/mL) and an MIC [3, 15] of 73 µM (≈ 60.2 µg/mL). The MIC [4, 16] was 2.3 µM (≈ 1.9 µg/mL).

In the case of CCCCCOc1ccc(-c2nc(C)c(C(=O)N[C@@H](CCN)C(=O)N(C)[C@@H]3C(=O)N[C@@H](C)C(=O)N[C@H](C(=O)O)Cc4ccc(OCCN)c(c4)-c4cc3ccc4OCCN)c(C)n2)cc1 (racemic) [Example 638], the MIC [1, 13] is reported as 64 µM (≈ 57.3 µg/mL), the MIC [2, 14] is reported as 1 µM (≈ 0.896 µg/mL) and the MIC [3, 15] is reported as 64 µM (≈ 57.3 µg/mL). For the same compound, the MIC [4, 16] was 0.75 µM (≈ 0.672 µg/mL).

Cc1nc(-c2ccc3c(c2)CCC3(C)C)nc(C)c1C(=O)N[C@@H](CCN)C(=O)N(C)[C@@H]1C(=O)N[C@@H](C)C(=O)N[C@H](C(=O)O)Cc2ccc(OCCN)c(c2)-c2cc1ccc2OCCN (racemic) [Example 647] gave an MIC [1, 13] of 64 µM (≈ 56.2 µg/mL), an MIC [2, 14] of 1 µM (≈ 0.878 µg/mL) and an MIC [3, 15] of 64 µM (≈ 56.2 µg/mL). It also gave an MIC [4, 16] of 0.5 µM (≈ 0.439 µg/mL).
